The text below walks through data of patent US20200398077A1, “SYSTEM AND METHOD TO ERADICATE A MAJORITY OF DISEASE-CAUSING GERMS AND PRODUCE AVIRULENT PHENOTYPE SURVIVORS SUSCEPTIBLE TO MICROBICIDES USING A LIGHT DOSE REGIMENT” (priority 2019, published 2020).

The subject of assay [1] is S. aureus ATCC 33592 (MRSA) Parental Wild-Type. As to the kind of experiment: Kirby-Bauer zones of inhibition (ZOI) antibiotic susceptibility assay, untreated MRSA parent strain. As to Susceptibility class (CLSI): key: R = resistant; S = susceptible. The class given is cell-based. To be noted: for Resistance/susceptibility in words (heatmap profile, FIG. 8): Parental Wild-Type, panel 120, CLSI M100-ED29:2019; for Susceptibility class (CLSI) / Zone diameter: S. aureus ATCC 33592 (MRSA), untreated parent, Kirby-Bauer ZOI. As to the method:
(§1) Table 7 below show and example of a Clinical laboratories Science Institute (CLSI) reference table typically used by clinicians and clinical microbiology laboratories to establish whether a clinical isolate is susceptible, intermediate or resistant to a particular type of antibiotic under the Kirby-Bauer ZOI assay:
(§2) In one example, the Kirby-bauer Zones of Inhibition (Z01) assay was performed on the untreated MRSA parent strain and the two generations of the depigmented avirulent phenotype survivors susceptible to microbicides were created by applying the light dose regiment of system 10 and the method thereof discussed above based on the CLSI guidelines, See Table 8 below:
(§3) The first generation (G1) is the avirulent phenotype survivors susceptible to microbicides created by system 10 and the method thereof and the second generation (G2) is the avirulent phenotype survivors susceptible to microbicides created by system 10 and the method thereof. In this example, the ZOI for Linezolid is indicated at 90, the ZOI for Norfloxacin is indicated at 92, the ZOI for Cefprozil is indicated at 94, ZOEs 96 and 98 are blank, ZOI 100 is for Rifampin, ZIO 102 is for Oxacillin and ZOI 104 is for Tetracycline. The growth control for Generation 1 (G1), Generation 2 (G2) and the wild type (WT) is indicated at 106, 108 and 110, respectively. In this example, Methicillin Resistant, S. aureus ATCC 33592. In this example, WT is Oxacillin is considered equivalent to methicillin when describing a MRSA strain. In this example, the ZOIs were measured at 24 hours and 72-hours past-challenge. Generation 1 was serially passaged onto an antibiotic-free TSA plate, then transferred to TSB liquid culture prior to performing the ZOI assay. Generation 2 was transferred from Generation 1, serially passaged onto an antibiotic-free TSA plate, then transferred to a TSB liquid culture prior to performing the ZOI assay. […] Thus, the avirulent phenotype survivors susceptible to microbicides are stable over multiple generations.
(§4) See e.g., Clinical and Laboratory Standards Institute, Performance Standards for Antimicrobial Susceptibility Testing, 29th Edition 950 West Valley Road Suite 2500, Wayne, Pa. 19087 USA, in this example Oxacillin is synonymous with methicillin when describing MRSA.

Assay [2] relates to Depigmented Generation 1 avirulent phenotype survivors (MRSA G1). As to the kind of experiment: Kirby-Bauer zones of inhibition (ZOI) antibiotic susceptibility assay, depigmented survivor Generation 1. As to Susceptibility class (CLSI): key: R = resistant; S = susceptible. The class given is cell-based, S. aureus. To be noted: for Susceptibility class (CLSI) / Zone diameter: Depigmented Generation 1 after light dose regiment, Kirby-Bauer ZOI; for Resistance/susceptibility in words (heatmap profile, FIG. 8): MRSA G1 (Generation 1), panel 122, after light dose regiment. As to the method: as §1, §2, §3, §4

Assay [3] has as its system Depigmented Generation 2 avirulent phenotype survivors (MRSA G2). As to the kind of experiment: Kirby-Bauer zones of inhibition (ZOI) antibiotic susceptibility assay, depigmented survivor Generation 2. As to Susceptibility class (CLSI): key: R = resistant; S = susceptible. The class given is cell-based, S. aureus. The conditions noted are these: for Susceptibility class (CLSI) / Zone diameter: Depigmented Generation 2 after light dose regiment, Kirby-Bauer ZOI; for Resistance/susceptibility in words (heatmap profile, FIG. 8): MRSA G2 (Generation 2), panel 124, after light dose regiment. The procedure:
as §1, §2, §3, §4

Regarding `CC(=O)NC[C@H]1CN(c2ccc(N3CCOCC3)c(F)c2)C(=O)O1` [Linezolid], in assay [1], the “Resistance/susceptibility in words (heatmap profile, FIG. 8)” value (from here on “Resistance/susceptibility in words”) is given as “susceptible”; the “Susceptibility class (CLSI)” value is recorded as “S”; the Zone diameter is recorded as 31.33 mm. In assay [2], the “Susceptibility class (CLSI)” value was “S” and the Zone diameter was determined as 35.11 mm. In assay [3], the “Susceptibility class (CLSI)” value was “S” and the Zone diameter is reported as 32.8 mm.

With `CCn1cc(C(=O)O)c(=O)c2cc(F)c(N3CCNCC3)cc21` [Norfloxacin], in assay [1], the “Resistance/susceptibility in words” value is on record as “susceptible”. Further, the “Susceptibility class (CLSI)” value in assay [1], in assay [2] and in assay [3] was “S” each time. For the same molecule, the Zone diameter is reported as 27.67 mm in assay [1], 32.68 mm in assay [2] and 30.17 mm in assay [3].

On to `Cc1onc(-c2ccccc2)c1C(=O)N[C@@H]1C(=O)N2[C@@H]1SC(C)(C)[C@@H]2C(=O)O` [Oxacillin], for which, in assay [1], the “Resistance/susceptibility in words” value is “resistant”; the “Susceptibility class (CLSI)” value was “R”; the Zone diameter result is “No Inhibition”. In assay [2], the “Susceptibility class (CLSI)” value is recorded as “S”; the Zone diameter is on record as 28.04 mm; the “Resistance/susceptibility in words” value is “susceptible”. In assay [3], the “Susceptibility class (CLSI)” value is “S”; the Zone diameter amounted to 27.25 mm; the “Resistance/susceptibility in words” value was “susceptible”.

Take `CC=CC1=C(C(=O)O)N2C(=O)[C@@H](NC(=O)[C@H](N)c3ccc(O)cc3)[C@H]2SC1` [Cefprozil]: in assay [1], the “Resistance/susceptibility in words” value is recorded as “resistant”; the “Susceptibility class (CLSI)” value was “R”; the Zone diameter entry was “No Inhibition”. Further, in assay [2], the “Susceptibility class (CLSI)” value is listed as “S”; the Zone diameter came out at 42.99 mm; the “Resistance/susceptibility in words” value is listed as “susceptible”. Besides, in assay [3], the “Susceptibility class (CLSI)” value was “S”; the Zone diameter is 42.98 mm; the “Resistance/susceptibility in words” value is “susceptible”.

`CO[C@H]1/C=C/O[C@@]2(C)Oc3c(C)c(O)c4c(O)c(c(/C=N/N5CCN(C)CC5)c(O)c4c3C2=O)NC(=O)/C(C)=C\C=C\[C@H](C)[C@H](O)[C@@H](C)[C@@H](O)[C@@H](C)[C@H](OC(C)=O)[C@@H]1C` [Rifampin]: the “Resistance/susceptibility in words” value in assay [1] is “resistant”; in assay [2] it was “susceptible”; in assay [3], “susceptible”. In addition, the “Susceptibility class (CLSI)” value in assay [1] was “R”; in assay [2], “S”; in assay [3], “S”. Further, the Zone diameter entry is on record as “No Inhibition” in assay [1], 45.04 mm in assay [2] and 48.68 mm in assay [3].

In the case of `CN(C)[C@@H]1C(O)=C(C(N)=O)C(=O)[C@@]2(O)C(O)=C3C(=O)c4c(O)cccc4[C@@](C)(O)[C@H]3C[C@@H]12` [Tetracycline], the “Susceptibility class (CLSI)” value in assay [1] is recorded as “R”; in assay [2], “S”; in assay [3], “S”. Moreover, the Zone diameter in assay [2] is 34.66 mm; in assay [3], 31.31 mm.
